Laboratory results published in PubChem BioAssay (NCI).
“And” between values parts separate entries of the source, which are not always exact repeats. Equal entries are not always repeated.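 Results reflect a 48-hour exposure of cells in 96-well plates to compound at five concentrations. At the GI50, growth is halved. TGI: total growth inhibition.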

How the values were obtained:
Experiment in all cases: NCI tumour cell line growth inhibition, 48 h
DMS 114 small cell lung = tested on: DMS 114 small cell lung
DMS 273 small cell lung = tested on: DMS 273 small cell lung
XF 498 CNS = tested on: XF 498 CNS
RXF-631 renal = tested on: RXF-631 renal
DLD-1 colon = tested on: DLD-1 colon
HOP-18 NSCLC = tested on: HOP-18 NSCLC
MDA-N = tested on: MDA-N

In the case of `CCC(/C(=N/NC(=O)C[N+](C)(C)C)c1ccccc1)C1OC(=O)c2ccccc21` (stereo unspecified), the TGI (DMS 114 small cell lung) is reported as > 100 µM, the TGI (DMS 273 small cell lung) is reported as > 100 µM and the TGI (XF 498 CNS) is reported as > 100 µM. The TGI (RXF-631 renal) was > 100 µM.
`O=S1(=O)CC#CC[C@@H](CO)[C@@H](CO)CC#CC1` was tested, and the TGI (DLD-1 colon) was > 100 µM and the TGI (XF 498 CNS) was > 100 µM.
`Cc1cc(NCCCCCCCCNc2cc(C)nc3cc(N(C)C)ccc23)c2ccc(N(C)C)cc2n1` showed a TGI (DMS 114 small cell lung) of 6.63 µM, a TGI (DMS 273 small cell lung) of 16.5 µM and a TGI (XF 498 CNS) of 7.3 µM.
With `C#CCN(Cc1ccc2nc(-c3ccccc3)c(Cl)nc2c1)c1ccc(Cl)c(Cl)c1` the TGI (DMS 114 small cell lung) was > 100 µM, the TGI (DLD-1 colon) was > 100 µM and the TGI (DMS 273 small cell lung) was > 100 µM. The TGI (HOP-18 NSCLC) was > 100 µM and the TGI (XF 498 CNS) was > 100 µM.
For `Oc1ccc(Cl)cc1N=Nc1c(O)ccc2ccccc12`, the TGI (MDA-N) was > 100 µM.
In the case of `COc1ccc(NC(=O)CC2SC(=Nc3ccc(Cl)cc3C)NC2=O)c([N+](=O)[O-])c1` (stereo unspecified), the TGI (DMS 114 small cell lung) is reported as > 100 µM, the TGI (DLD-1 colon) is reported as > 100 µM and the TGI (DMS 273 small cell lung) is reported as > 100 µM. For the same molecule, the TGI (RXF-631 renal) was > 100 µM.
For `COc1ccc(C2[C@@H](Cl)C(=O)N2c2ccc(OC)cc2)cc1` (stereo partly specified), the TGI (DMS 114 small cell lung) was > 100 µM, the TGI (DLD-1 colon) was > 100 µM and the TGI (DMS 273 small cell lung) was > 100 µM.
With `COc1cc(OC)c(OC)cc1/C=C/c1ccc2ccccc2n1` the TGI (MDA-N) was > 10 µM.
`Cc1ccc(C2=C(c3ccccc3)C(O)(c3ccccc3)C(c3ccccc3)=C2c2ccc(C)cc2)cc1` was tested, and the TGI (DLD-1 colon) was > 100 µM, the TGI (HOP-18 NSCLC) was > 100 µM and the TGI (XF 498 CNS) was > 100 µM. The TGI (RXF-631 renal) was > 100 µM.
`O=C(C#Cc1ccccc1)N1CCCCC1` was tested, and the TGI (MDA-N) was > 100 µM.
`Nc1nc2c(nnn2C2C=C(CO)C(O)C2O)c(=O)[nH]1` (stereo unspecified) was tested, and the TGI (DMS 114 small cell lung) was > 100 µM, the TGI (DLD-1 colon) was > 100 µM and the TGI (DMS 273 small cell lung) was > 100 µM. For the same molecule, the TGI (HOP-18 NSCLC) was > 100 µM and the TGI (XF 498 CNS) was > 100 µM.
With `CN(N=O)N1C(=O)SCC(c2ccccc2)(c2ccccc2)C1=O` the TGI (MDA-N) was > 100 µM.
`c1ccc(C2SCc3nc4ccccc4n32)cc1` (stereo unspecified) was tested, and the TGI (DMS 114 small cell lung) was 63.4 µM, the TGI (DLD-1 colon) was > 100 µM and the TGI (DMS 273 small cell lung) was > 100 µM. For the same molecule, the TGI (HOP-18 NSCLC) was 51.7 µM and the TGI (XF 498 CNS) was 95.4 µM.
With `CCN(CC(O)COc1ccc2c(c1)[n+]([O-])nc(N)[n+]2[O-])C(C)=O` (stereo unspecified) the TGI (MDA-N) was > 100 µM.
`O=C1C2Cc3ccccc3CN2C(=O)N1CN1CCCCC1` (stereo unspecified) was tested, and the TGI (DMS 114 small cell lung) was > 100 µM, the TGI (DLD-1 colon) was > 100 µM and the TGI (DMS 273 small cell lung) was > 100 µM. The TGI (XF 498 CNS) was > 100 µM.
`S=C1NC(c2ccccc2)NC(c2ccccc2)S1` (stereo unspecified) was tested, and the TGI (MDA-N) was > 100 µM.
For `OCC1OC(NO)C(O)C(O)C1O` (stereo unspecified), the TGI (DLD-1 colon) was > 100 µM, the TGI (DMS 273 small cell lung) was > 100 µM and the TGI (HOP-18 NSCLC) was > 100 µM. The TGI (XF 498 CNS) was > 100 µM and the TGI (RXF-631 renal) was > 100 µM.
`CC1NCCC(CC(=O)O)C1CC(=O)O` (stereo unspecified) was tested, and the TGI (MDA-N) was > 100 µM.
`Cc1nc2cc3[nH]c4ccccc4c(=O)c3cc2s1` was tested, and the TGI (DMS 114 small cell lung) was > 100 µM, the TGI (DMS 273 small cell lung) was > 100 µM and the TGI (HOP-18 NSCLC) was > 100 µM. For the same molecule, the TGI (XF 498 CNS) was > 100 µM.
In the case of `O=S(=O)(O)c1ccc([Se][Se]c2ccc(S(=O)(=O)O)cc2)cc1`, the TGI (DMS 114 small cell lung) is reported as > 100 µM, the TGI (DLD-1 colon) is reported as > 100 µM and the TGI (DMS 273 small cell lung) is reported as > 100 µM. The TGI (HOP-18 NSCLC) was > 100 µM and the TGI (XF 498 CNS) was > 100 µM.
`C=C1CC2(CC(c3ccccc3C)OC(c3ccccc3C)C2)OC1=O` (stereo unspecified) was tested, and the TGI (MDA-N) was 3.32 µM.
In the case of `CC1=NN(c2ccccc2)C(=O)C1N=Nc1ccc(Br)cc1C` (stereo unspecified), the TGI (DMS 114 small cell lung) is reported as > 100 µM, the TGI (DLD-1 colon) is reported as > 100 µM and the TGI (DMS 273 small cell lung) is reported as > 100 µM. For the same molecule, the TGI (HOP-18 NSCLC) was > 100 µM and the TGI (RXF-631 renal) was > 100 µM.
In the case of `C/C=C1/CN2CCC34c5ccccc5N5C(=O)C(C6CC78c9ccccc9N9C(=O)C=CC(C%10CC7N6C/C%10=C/C)C98)=CC(C1CC23)C54` (stereo unspecified), the GI50 (MDA-N) is reported as 3.51 µM and the TGI (MDA-N) is reported as 12.7 µM and 13.3 µM.
For `O=C1C2=C(c3ccccc31)C(c1ccc([N+](=O)[O-])cc1)NC(=S)N2` (stereo unspecified), the TGI (DMS 114 small cell lung) was > 100 µM, the TGI (DLD-1 colon) was > 100 µM and the TGI (DMS 273 small cell lung) was > 100 µM. The TGI (XF 498 CNS) was > 100 µM and the TGI (RXF-631 renal) was > 100 µM.
In the case of `Cc1ccc(O)c(C(=O)/C=C/c2ccccc2)c1`, the TGI (MDA-N) is reported as > 100 µM.
With `CC#CC#C/C=C1/C=CC2(CCCCO2)O1` (stereo unspecified) the TGI (MDA-N) was > 100 µM.
For `Cc1c2cc[n+](C)cc2c(C)c2c1[nH]c1ccc(OC(C)(C)C)cc12`, the TGI (DMS 114 small cell lung) was > 100 µM, the TGI (DLD-1 colon) was > 100 µM and the TGI (DMS 273 small cell lung) was > 100 µM. The TGI (HOP-18 NSCLC) was > 100 µM.
`Nc1[nH]c(=S)[nH]c(=O)c1N=Nc1c(Br)cc(S(N)(=O)=O)cc1Br` was tested, and the TGI (MDA-N) was > 100 µM.
In the case of `N#Cc1cc([N+](=O)[O-])ccc1NC(=O)C(=O)Nn1c(=S)[nH]c2ccccc2c1=O`, the TGI (DLD-1 colon) is reported as > 100 µM, the TGI (HOP-18 NSCLC) is reported as > 100 µM and the TGI (XF 498 CNS) is reported as > 100 µM. For the same molecule, the TGI (RXF-631 renal) was > 100 µM.
Molecule `O=C(NNC(=O)/C(=C/c1cccc([N+](=O)[O-])c1)NC(=O)c1ccccc1)Nc1ccc(Cl)cc1` has a TGI (DMS 114 small cell lung) of 26.9 µM, a TGI (DLD-1 colon) of 26.7 µM and a TGI (DMS 273 small cell lung) of 26.1 µM. The TGI (HOP-18 NSCLC) was 34.6 µM, the TGI (XF 498 CNS) was 26.6 µM and the TGI (RXF-631 renal) was 23.8 µM.
For `O=C(Nc1ccn(C2CCC(COC(c3ccccc3)(c3ccccc3)c3ccccc3)O2)c(=O)n1)c1ccccc1` (stereo unspecified), the TGI (MDA-N) was 10.5 µM.
For `O=C1/C(=C/c2ccc(C(=O)O)cc2)CNC/C1=C\c1ccc(C(=O)O)cc1`, the TGI (DMS 114 small cell lung) was > 100 µM, the TGI (DLD-1 colon) was > 100 µM and the TGI (DMS 273 small cell lung) was > 100 µM. For the same molecule, the TGI (HOP-18 NSCLC) was > 100 µM, the TGI (XF 498 CNS) was > 100 µM and the TGI (RXF-631 renal) was > 100 µM.
With `COc1ccc(CC2OC3(CCCCC3)CC3CCCCN32)cc1` (stereo unspecified) the TGI (MDA-N) was > 100 µM.
With `CCCCCCCCCCCCCC(=O)OCC1OC(=O)C(O)C1O` (stereo unspecified) the TGI (DMS 114 small cell lung) was > 100 µM, the TGI (DLD-1 colon) was > 100 µM and the TGI (HOP-18 NSCLC) was > 100 µM. The TGI (XF 498 CNS) was > 100 µM.
With `Clc1cc2ns[s+]c2cc1Cl` the TGI (DMS 114 small cell lung) was > 100 µM, the TGI (DLD-1 colon) was > 56.5 µM and the TGI (DMS 273 small cell lung) was > 100 µM. For the same molecule, the TGI (HOP-18 NSCLC) was > 69.3 µM, the TGI (XF 498 CNS) was > 100 µM and the TGI (RXF-631 renal) was > 100 µM.
In the case of `CC(C)c1cccc(C(C)C)c1NC(=O)/C(Cc1nc2ccc(Cl)cc2[nH]c1=O)=N\NC(=O)C[N+](C)(C)C`, the TGI (DMS 114 small cell lung) is reported as > 100 µM, the TGI (DLD-1 colon) is reported as > 100 µM and the TGI (RXF-631 renal) is reported as > 100 µM.
Work on `COc1ccc(/C=C2\CCC(C)(CN(C)C)C2=O)cc1Br` (stereo unspecified) yielded a TGI (DMS 114 small cell lung) of 51.9 µM, a TGI (DLD-1 colon) of 37.4 µM and a TGI (DMS 273 small cell lung) of 32.2 µM. The TGI (HOP-18 NSCLC) was > 100 µM, the TGI (MDA-N) was 41.2 µM and the TGI (XF 498 CNS) was 33.1 µM.
For `O=S1c2ccccc2N=C(c2cccs2)CC1c1ccccc1O` (stereo unspecified), the TGI (DMS 114 small cell lung) was > 100 µM, the TGI (DLD-1 colon) was > 100 µM and the TGI (XF 498 CNS) was > 100 µM. For the same molecule, the TGI (RXF-631 renal) was > 100 µM.
In the case of `CN1C(=O)CC(CC(=O)C2CCCCC2=O)CC1=O` (stereo unspecified), the TGI (DMS 114 small cell lung) is reported as > 100 µM, the TGI (DLD-1 colon) is reported as > 100 µM and the TGI (DMS 273 small cell lung) is reported as > 100 µM. The TGI (HOP-18 NSCLC) was > 100 µM and the TGI (XF 498 CNS) was > 100 µM.
`C/C(COc1ccccc1)=N\NC(N)=S` was tested, and the TGI (DMS 114 small cell lung) was > 100 µM, the TGI (DLD-1 colon) was > 100 µM and the TGI (DMS 273 small cell lung) was > 100 µM. For the same molecule, the TGI (XF 498 CNS) was > 100 µM.
In the case of `CN(C)c1ccc(/C=C(\C#N)C(=O)c2ccccc2)cc1Br`, the TGI (DMS 114 small cell lung) is reported as > 100 µM, the TGI (DLD-1 colon) is reported as > 100 µM and the TGI (DMS 273 small cell lung) is reported as > 100 µM. For the same molecule, the TGI (HOP-18 NSCLC) was > 100 µM, the TGI (XF 498 CNS) was > 100 µM and the TGI (RXF-631 renal) was > 100 µM.
`CCn1c(C)nc([N+](=O)[O-])c1Sc1ncc[nH]1` was tested, and the TGI (DMS 114 small cell lung) was > 100 µM, the TGI (DLD-1 colon) was > 100 µM and the TGI (DMS 273 small cell lung) was > 100 µM. For the same molecule, the TGI (HOP-18 NSCLC) was 73.8 µM, the TGI (XF 498 CNS) was > 100 µM and the TGI (RXF-631 renal) was 88 µM.
`CCOC1=C2N=C(C(CC)c3ccc(F)cc3)N=C2C(=O)c2ccccc21` (stereo unspecified) was tested, and the TGI (DMS 114 small cell lung) was > 68.4 µM, the TGI (DLD-1 colon) was > 30.4 µM and the TGI (DMS 273 small cell lung) was > 72.1 µM. For the same molecule, the TGI (XF 498 CNS) was 40.1 µM.
